Measured values from patent US11254663B2 (BRISTOL-MYERS SQUIBB COMPANY, priority 2019, dated 2022).
Where two headings read alike, the source gives them in different places.

Target: FXR (Homo sapiens (Human), UniProt Q96RI1)
Assay: transient human FXR/Gal4-luciferase reporter assay
Type: cell-based
Summary of the method: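 Compound exposure ran overnight at 37 °C and activity was measured as luminescence with Steady-Glo reagent. The cells were a HEK293 line stably expressing firefly luciferase under five Gal4 response elements. They were transiently transfected, one night beforehand, with a plasmid encoding Gal4 DNA-binding domain fused to the human FXR ligand-binding domain.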

[1] = Gal4-hFXR fusion construct, HEK293 reporter cells, response relative to 8 μM GW-4064

Sequence of FXR (Q96RI1 262-486): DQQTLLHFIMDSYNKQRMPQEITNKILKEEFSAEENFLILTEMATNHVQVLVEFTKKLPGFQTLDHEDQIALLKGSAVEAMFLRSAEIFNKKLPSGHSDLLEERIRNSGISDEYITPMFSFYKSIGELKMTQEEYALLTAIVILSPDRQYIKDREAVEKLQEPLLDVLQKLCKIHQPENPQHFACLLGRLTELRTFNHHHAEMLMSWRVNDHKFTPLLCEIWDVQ

| Compound | EC50 [1] [nM] | EC50 [nM] |
| --- | --- | --- |
| CC(C)(C)NC(=O)N(CC12CCC(c3noc(C(C)(C)F)n3)(CC1)CC2)c1cc(-c2ccc(OC(F)F)cc2)cnn1 [Example 660] | 2190 |  |
| CC(C)c1noc(C23CCC(CN(C(=O)C45CC(F)(C4)C5)c4cccc(-c5ccc(OC(F)F)cc5)c4)(CC2)CC3)n1 [Example 387, N-(4′-(difluoromethoxy)-[1,1′-biphenyl]-3-yl)-3-fluoro-N-((4-(3-isopropyl-1,2,4-oxadiazol-5-yl)bicyclo[2.2.2]octan-1-yl)methyl)bicyclo[1.1.1]pentane-1-carboxamide] | 47 |  |
| CCOc1cnc(-c2cccc(N(CC34CCC(c5nc(C(C)C)no5)(CC3)CC4)C(=O)C34CC(F)(C3)C4)c2)nc1 [Example 395, N-(3-(5-ethoxypyrimidin-2-yl)phenyl)-3-fluoro-N-((4-(3-isopropyl-1,2,4-oxadiazol-5-yl)bicyclo[2.2.2]octan-1-yl)methyl)bicyclo[1.1.1]pentane-1-carboxamide] | 156 |  |
| CC(F)(F)c1nc(C23CCC(CN(C(=O)C45CC(F)(C4)C5)c4cccc(-c5cnc6nc(C7CC7)sc6c5)c4)(CC2)CC3)no1 [Example 530, N-(3-(2-cyclopropylthiazolo[4,5-b]pyridin-6-yl)phenyl)-N-((4-(5-(1,1-difluoroethyl)-1,2,4-oxadiazol-3-yl)bicyclo[2.2.2]octan-1-yl)methyl)-3-fluorobicyclo[1.1.1]pentane-1-carboxamide] |  | 145 |
| CC(C)(F)c1nc(C23CCC(CN(c4cccc(N5CC6(COC6)C5)c4)C(=O)[C@H]4C[C@](O)(C(F)(F)F)C4)(CC2)CC3)no1 [Example 592, (cis)-N-(3-(2-oxa-6-azaspiro[3.3]heptan-6-yl)phenyl)-N-((4-(5-(2-fluoropropan-2-yl)-1,2,4-oxadiazol-3-yl)bicyclo[2.2.2]octan-1-yl)methyl)-3-hydroxy-3-(trifluoromethyl)cyclobutane-1-carboxamide] | 970 |  |
| CC(C)(O)c1ccc(-c2cccc(N(CC34CCC(c5noc(C(C)(C)F)n5)(CC3)CC4)C(=O)[C@H]3C[C@](O)(C(F)(F)F)C3)n2)cc1 [Example 595, (cis)-N-((4-(5-(2-fluoropropan-2-yl)-1,2,4-oxadiazol-3-yl)bicyclo[2.2.2]octan-1-yl)methyl)-3-hydroxy-N-(6-(4-(2-hydroxypropan-2-yl)phenyl)pyridin-2-yl)-3-(trifluoromethyl)cyclobutane-1-carboxamide] | 64 |  |
| CC(C)(OC(=O)N(CC12CCC(c3nc(C4CC4)no3)(CC1)CC2)c1nccc(C23CCC(C#N)(CC2)CC3)n1)C(F)(F)F [Example 665, 1,1,1-trifluoro-2-methylpropan-2-yl (4-(4-cyanobicyclo[2.2.2]octan-1-yl)pyrimidin-2-yl)((4-(3-cyclopropyl-1,2,4-oxadiazol-5-yl)bicyclo[2.2.2]octan-1-yl)methyl)carbamate] | 2000 |  |
| CC1(C(=O)N(CC23CCC(c4noc(C(C)(C)C)n4)(CC2)CC3)c2cccc(-c3ccc(OC(F)F)cc3)c2)COC1 [Example 515, N-((4-(5-(tert-butyl)-1,2,4-oxadiazol-3-yl)bicyclo[2.2.2]octan-1-yl)methyl)-N-(4′-(difluoromethoxy)-[1,1′-biphenyl]-3-yl)-3-methyloxetane-3-carboxamide] | 357 |  |
| COc1nccc(-c2cccc(N(CC34CCC(c5nc(C6CC6)no5)(CC3)CC4)C(=O)C34CC(F)(C3)C4)c2)n1 [Example 242, N-((4-(3-cyclopropyl-1,2,4-oxadiazol-5-yl)bicyclo[2.2.2]octan-1-yl)methyl)-3-fluoro-N-(3-(2-methoxypyrimidin-4-yl)phenyl)bicyclo[1.1.1]pentane-1-carboxamide] | 276 |  |
| CCOc1ccc(-c2cncc(N(CC34CCC(c5nc(C(C)(C)C)no5)(CC3)CC4)C(=O)C34CC(F)(C3)C4)c2)cn1 [Example 477, N-((4-(3-(tert-butyl)-1,2,4-oxadiazol-5-yl)bicyclo[2.2.2]octan-1-yl)methyl)-N-(6′-ethoxy-[3,3′-bipyridin]-5-yl)-3-fluorobicyclo[1.1.1]pentane-1-carboxamide] |  | 485 |
| Cc1nc2cc(-c3cccc(N(CC45CCC(c6nc(C7CC7)no6)(CC4)CC5)C(=O)C45CC(F)(C4)C5)c3)ccc2o1 [Example 305, N-((4-(3-cyclopropyl-1,2,4-oxadiazol-5-yl)bicyclo[2.2.2]octan-1-yl)methyl)-3-fluoro-N-(3-(2-methylbenzo[d]oxazol-5-yl)phenyl)bicyclo[1.1.1]pentane-1-carboxamide] | 301 |  |
| CC(C)Oc1ccc(-c2ccnc(N(CC34CCC(c5noc(C(C)(C)F)n5)(CC3)CC4)C(=O)OC(C)(C)C(F)(F)F)n2)cc1 [Example 636, 1,1,1-trifluoro-2-methylpropan-2-yl ((4-(5-(2-fluoropropan-2-yl)-1,2,4-oxadiazol-3-yl)bicyclo[2.2.2]octan-1-yl)methyl)(4-(4-isopropoxyphenyl)pyrimidin-2-yl)carbamate] | 68 |  |
| O=C(N(CC12CCC(c3nc(C4CC4)no3)(CC1)CC2)c1cccc(-c2ccn3ccnc3c2)c1)C12CC(F)(C1)C2 [Example 288, N-((4-(3-cyclopropyl-1,2,4-oxadiazol-5-yl)bicyclo[2.2.2]octan-1-yl)methyl)-3-fluoro-N-(3-(imidazo[1,2-a]pyridin-7-yl)phenyl)bicyclo[1.1.1]pentane-1-carboxamide] | 539 |  |
| CCOc1ccc(-c2cccc(N(CC34CCC(c5nc(C6CC6)no5)(CC3)CC4)C(=O)C34CC(F)(C3)C4)c2)cc1 [Example 290, N-((4-(3-cyclopropyl-1,2,4-oxadiazol-5-yl)bicyclo[2.2.2]octan-1-yl)methyl)-N-(4′-ethoxy-[1,1′-biphenyl]-3-yl)-3-fluorobicyclo[1.1.1]pentane-1-carboxamide] | 60 |  |
| O=C(N(CC12CCC(c3nc(C4CC4)no3)(CC1)CC2)c1cccc(-c2ccc3nc(O)ccc3c2)c1)C12CC(F)(C1)C2 [Example 331, N-((4-(3-cyclopropyl-1,2,4-oxadiazol-5-yl)bicyclo[2.2.2]octan-1-yl)methyl)-3-fluoro-N-(3-(2-hydroxyquinolin-6-yl)phenyl)bicyclo[1.1.1]pentane-1-carboxamide] | 231 |  |
| COc1ccc(-c2cccc(N(CC34CCC(c5nc(C(C)C)no5)(CC3)CC4)C(=O)C34CC(F)(C3)C4)c2)cc1 [Example 377, 3-fluoro-N-((4-(3-isopropyl-1,2,4-oxadiazol-5-yl)bicyclo[2.2.2]octan-1-yl)methyl)-N-(4′-methoxy-[1,1′-biphenyl]-3-yl)bicyclo[1.1.1]pentane-1-carboxamide] | 52 |  |
| COc1ncc(-c2cccc(N(CC34CCC(c5nnc(C6CC6)o5)(CC3)CC4)C(=O)C34CC(F)(C3)C4)c2)cn1 [Example 341, N-((4-(5-cyclopropyl-1,3,4-oxadiazol-2-yl)bicyclo[2.2.2]octan-1-yl)methyl)-3-fluoro-N-(3-(2-methoxypyrimidin-5-yl)phenyl)bicyclo[1.1.1]pentane-1-carboxamide] | 287 |  |
| CC(C)(O)c1ccc(-c2nccc(N(CC34CCC(c5noc(C(C)(C)F)n5)(CC3)CC4)C(=O)OC(C)(C)C(F)(F)F)n2)cc1 [Example 635, 1,1,1-trifluoro-2-methylpropan-2-yl ((4-(5-(2-fluoropropan-2-yl)-1,2,4-oxadiazol-3-yl)bicyclo[2.2.2]octan-1-yl)methyl)(2-(4-(2-hydroxypropan-2-yl)phenyl)pyrimidin-4-yl) carbamate] | 1280 |  |
| COc1cc(-c2cccc(N(CC34CCC(c5nnc(C)o5)(CC3)CC4)C(=O)C3CCC3)c2)ccn1 [Example 231, N-(3-(2-methoxypyridin-4-yl)phenyl)-N-((4-(5-methyl-1,3,4-oxadiazol-2-yl)bicyclo[2.2.2]octan-1-yl)methyl)cyclobutanecarboxamide] | 592 |  |
| Cc1nc2ccc(-c3cccc(N(CC45CCC(c6nc(C7CC7)no6)(CC4)CC5)C(=O)C4CC(F)(F)C4)c3)cc2s1 [Example 554, N-((4-(3-cyclopropyl-1,2,4-oxadiazol-5-yl)bicyclo[2.2.2]octan-1-yl)methyl)-3,3-difluoro-N-(3-(2-methylbenzo[d]thiazol-6-yl)phenyl)cyclobutane-1-carboxamide] | 232 |  |
| CS(=O)(=O)Nc1ccc(-c2cccc(N(CC34CCC(c5cnc(C(F)(F)F)nc5)(CC3)OC4)C(=O)C34CC(F)(C3)C4)c2)cc1 [Example 419, 3-fluoro-N-(4′-(methylsulfonamido)-[1,1′-biphenyl]-3-yl)-N-((1-(2-(trifluoromethyl)pyrimidin-5-yl)-2-oxabicyclo[2.2.2]octan-4-yl)methyl)bicyclo[1.1.1]pentane-1-carboxamide] | 523 |  |
| CCOc1ccc(-c2cccc(N(CC34CCC(c5noc(C(C)(F)F)n5)(CC3)CC4)C(=O)C34CC(F)(C3)C4)c2)cc1 [Example 527, N-((4-(5-(1,1-difluoroethyl)-1,2,4-oxadiazol-3-yl)bicyclo[2.2.2]octan-1-yl)methyl)-N-(4′-ethoxy-[1,1′-biphenyl]-3-yl)-3-fluorobicyclo[1.1.1]pentane-1-carboxamide] | 103 |  |
| COc1ncc(-c2cccc(N(CC34CCC(c5nc(C(C)C)no5)(CC3)CC4)C(=O)C34CC(F)(C3)C4)c2)cn1 [Example 383, 3-Fluoro-N-((4-(3-isopropyl-1,2,4-oxadiazol-5-yl)bicyclo[2.2.2]octan-1-yl)methyl)-N-(3-(2-methoxypyrimidin-5-yl)phenyl)bicyclo[1.1.1]pentane-1-carboxamide] | 47 |  |
| Cc1nc2ncc(-c3cccc(N(CC45CCC(c6nc(C(C)C)no6)(CC4)CC5)C(=O)C45CC(F)(C4)C5)c3)cc2s1 [Example 389, 3-fluoro-N-((4-(3-isopropyl-1,2,4-oxadiazol-5-yl)bicyclo[2.2.2]octan-1-yl)methyl)-N-(3-(2-methylthiazolo[4,5-b]pyridin-6-yl)phenyl)bicyclo[1.1.1]pentane-1-carboxamide] | 61 |  |
